Data from patent US10668051B2, “Modulators of calcium release-activated calcium channel” (Rhizen Pharmaceuticals SA, priority 2009, dated 2020).
Counter-ions that a name gives are not always drawn.

The molecules below were run against CRAC channels (Homo sapiens (Human), UniProt Q96D31) (assay: In-vitro CRAC channel inhibition assay in Jurkat cells (thapsigargin-induced calcium influx)).
Sequence of CRAC channels (Q96D31 whole entry): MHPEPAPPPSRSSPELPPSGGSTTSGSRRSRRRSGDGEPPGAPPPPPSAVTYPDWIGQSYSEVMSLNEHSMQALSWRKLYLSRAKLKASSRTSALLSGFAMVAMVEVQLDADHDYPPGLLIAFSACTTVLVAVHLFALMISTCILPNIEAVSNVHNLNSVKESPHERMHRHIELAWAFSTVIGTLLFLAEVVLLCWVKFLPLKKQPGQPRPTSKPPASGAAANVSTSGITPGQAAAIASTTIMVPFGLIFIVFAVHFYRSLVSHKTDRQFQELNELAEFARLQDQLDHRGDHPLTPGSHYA
Type: cell-based
Procedure: 1A. In-Vitro CRAC Channel Inhibition Assay in Jurkat Cells
Plate is incubated at 37° C./5% CO2 for 30 min followed by further 15 min incubation at room temperature. Test compounds (DMSO stocks diluted in Ca^2+ and Mg^2+ free Hanks buffer) at desired concentrations were added to the wells and incubated for 15 min. Thapsigargin (1 μM final concentration) was added to the wells and incubated for 15 min to inhibit the Sarco-endoplasmic reticulum Ca^2+ ATPase pump thereby depleting endoplasmic calcium and raising cytosolic calcium concentrations. Store-operated calcium entry was initiated by adding extracellular Ca^2+ to a final concentration of 1.8 mM. Fluorescence was monitored over 5 min on a plate reader (BMG Labtech., Germany) with excitation at 485 nm and; an emission wavelength at 520 nm. Data were analyzed using GraphPad Prism. IC50 for each compound was determined based on the percent inhibition of thapsigargin-induced calcium influx into cells.
In the case of O=C(Nc1ccc(-n2nc(C3CC3)cc2C2CC2)nc1)c1cccnc1 [Example 46, N-[6-(3,5-dicyclopropyl-1H-pyrazol-1-yl)pyridin-3-yl]nicotinamide dihydrochloride], the inhibition at 1 µM is reported as 0.26%.
O=C(Nc1ccc(-n2nc(C3CC3)cc2C2CC2)nc1)c1ccncc1 [Example 47, N-[6-(3,5-dicyclopropyl-1H-pyrazol-1-yl)pyridin-3-yl]isonicotinamide dihydrochloride] was tested, and the inhibition at 1 µM was 10.4%.
Molecule O=C(Nc1ccc(-n2nc(C3CC3)cc2C2CC2)nc1)c1ccncc1F [Example 48, N-[6-(3,5-dicyclopropyl-1H-pyrazol-1-yl)pyridin-3-yl]-3-fluoroisonicotinamide] has an inhibition at 1 µM of 12.3%.
With O=C(Nc1ccc(-n2nc(C3CC3)cc2C2CC2)nc1)c1c(Cl)cncc1Cl [Example 50, 3,5-dichloro-N-[6-(3,5-dicyclopropyl-1H-pyrazol-1-yl)pyridin-3-yl]isonicotinamide hydrochloride] the inhibition at 1 µM was 29.8%.
For Cc1ncncc1C(=O)Nc1ccc(-n2nc(C3CC3)cc2C2CC2)nc1 [Example 51, N-[6-(3,5-dicyclopropyl-1H-pyrazol-1-yl)pyridin-3-yl]-4-methylpyrimidine-5-carboxamide hydrochloride], the inhibition at 1 µM was 0%.
Work on Cc1ncsc1C(=O)N(C)c1ccc(-n2nc(C(F)(F)F)cc2C2CC2)cc1 [Example 54, N-{4-[5-cyclopropyl-3-(trifluoromethyl)-1H-pyrazol-1-yl]phenyl}-N,4-dimethylthiazole-5-carboxamide] yielded an inhibition at 1 µM of 0%.
Molecule Cc1noc(C)c1C(=O)Nc1ccc(-n2nc(C(F)(F)F)cc2C2CC2)cc1 [Example 57, N-{4-[5-cyclopropyl-3-(trifluoromethyl)-1H-pyrazol-1-yl]phenyl}-3,5-dimethylisoxazole-4-carboxamide] has an inhibition at 1 µM of 83.8%.
Cn1ccnc1C(=O)Nc1ccc(-n2nc(C(F)(F)F)cc2C2CC2)cc1 [Example 58, N-{4-[5-cyclopropyl-3-(trifluoromethyl)-1H-pyrazol-1-yl]phenyl}-1-methyl-1H-imidazole-2-carboxamide] showed an inhibition at 1 µM of 40.5%.
Cc1ccccc1C(=O)Nc1ccc(-n2nc(C(F)(F)F)cc2C2CC2)cc1 [Example 60, N-{4-[5-cyclopropyl-3-(trifluoromethyl)-1H-pyrazol-1-yl]phenyl}-2-methylbenzamide] gave an inhibition at 1 µM of 83.7%.
With O=C(Nc1ccc(-n2nc(C(F)(F)F)cc2C2CC2)cc1)c1cccc(F)c1F [Example 61, N-{4-[5-cyclopropyl-3-(trifluoromethyl)-1H-pyrazol-1-yl]phenyl}-2,3-difluorobenzamide] the inhibition at 1 µM was 100%.
With O=C(Nc1ccc(-n2nc(C(F)(F)F)cc2C2CC2)cc1)c1c(F)cccc1F [Example 62, N-{4-[5-cyclopropyl-3-(trifluoromethyl)-1H-pyrazol-1-yl]phenyl}-2,6-difluorobenzamide] the inhibition at 1 µM was 100%.
CS(=O)(=O)c1cccc(C(=O)Nc2ccc(-n3nc(C(F)(F)F)cc3C3CC3)cc2)c1 [Example 63, N-{4-[5-cyclopropyl-3-(trifluoromethyl)-1H-pyrazol-1-yl]phenyl}-3-(methylsulfonyl)benzamide] was tested, and the inhibition at 1 µM was 39.1%.
With CSc1ccc(Cl)c(C(=O)Nc2ccc(-n3nc(C(F)(F)F)cc3C3CC3)cc2)c1 [Example 64, 2-chloro-N-{4-[5-cyclopropyl-3-(trifluoromethyl)-1H-pyrazol-1-yl]phenyl}-5-(methylthio)benzamide] the inhibition at 1 µM was 100%.
CS(=O)(=O)c1ccc(Cl)c(C(=O)Nc2ccc(-n3nc(C(F)(F)F)cc3C3CC3)cc2)c1 [Example 65, 2-chloro-N-{4-[5-cyclopropyl-3-(trifluoromethyl)-1H-pyrazol-1-yl]phenyl}-5-(methylsulfonyl)benzamide] was tested, and the inhibition at 1 µM was 97.9%.
Work on O=C(Nc1ccc(-n2nc(C(F)(F)F)cc2C2CC2)cc1)c1ccncc1 [Example 66, N-{4-[5-cyclopropyl-3-(trifluoromethyl)-1H-pyrazol-1-yl]phenyl}pyridine-4-carboxamide hydrochloride] yielded an inhibition at 1 µM of 100%.
Work on O=C(Nc1ccc(-n2nc(C(F)(F)F)cc2C2CC2)cc1)c1ccncc1F [Example 67, N-{4-[5-cyclopropyl-3-(trifluoromethyl)-1H-pyrazol-1-yl]phenyl}-3-fluoroisonicotinamide] yielded an inhibition at 1 µM of 100%.
Cc1ncncc1C(=O)Nc1ccc(-n2nc(C(F)(F)F)cc2C2CC2)cc1 [Example 68, N-{4-[5-cyclopropyl-3-(trifluoromethyl)-1H-pyrazol-1-yl]phenyl}-4-methylpyrimidine-5-carboxamide] gave an inhibition at 1 µM of 61.5%.
In the case of O=C(Cc1ccc(F)cc1)Nc1ccc(-n2nc(C(F)(F)F)cc2C2CC2)cc1 [Example 70, N-{4-[5-cyclopropyl-3-(trifluoromethyl)-1H-pyrazol-1-yl]phenyl}-2-(4-fluorophenyl)acetamide], the inhibition at 1 µM is reported as 68.9%.
In the case of O=C(Cc1ccccn1)Nc1ccc(-n2nc(C(F)(F)F)cc2C2CC2)cc1 [Example 71, N-{4-[5-cyclopropyl-3-(trifluoromethyl)-1H-pyrazol-1-yl]phenyl}-2-(pyridin-2-yl)acetamide hydrochloride], the inhibition at 1 µM is reported as 100%.
O=C(Cc1cccnc1)Nc1ccc(-n2nc(C(F)(F)F)cc2C2CC2)cc1 [Example 72, N-{4-[5-cyclopropyl-3-(trifluoromethyl)-1H-pyrazol-1-yl]phenyl}-2-(pyridin-3-yl)acetamide hydrochloride] showed an inhibition at 1 µM of 100%.
O=C(Cc1ccncc1)Nc1ccc(-n2nc(C(F)(F)F)cc2C2CC2)cc1 [Example 73, N-{4-[5-cyclopropyl-3-(trifluoromethyl)-1H-pyrazol-1-yl]phenyl}-2-(pyridin-4-yl)acetamide hydrochloride] was tested, and the inhibition at 1 µM was 68%.
Work on Cc1ncsc1CNc1ccc(-n2nc(C(F)(F)F)cc2C2CC2)cc1 [Example 74, 4-[5-cyclopropyl-3-(trifluoromethyl)-1H-pyrazol-1-yl]-N-[(4-methylthiazol-5-yl)methyl]aniline] yielded an inhibition at 1 µM of 100%.
Cc1nnsc1NC(=O)Nc1ccc(-n2nc(C(F)(F)F)cc2C2CC2)cc1 [Example 75, 1-{4-[5-cyclopropyl-3-(trifluoromethyl)-1H-pyrazol-1-yl]phenyl}-3-(4-methyl-1,2,3-thiadiazol-5-yl)urea] showed an inhibition at 1 µM of 0%.
For Cc1ncsc1NC(=O)Nc1ccc(-n2nc(C(F)(F)F)cc2C2CC2)cc1 [Example 76, 1-{4-[5-cyclopropyl-3-(trifluoromethyl)-1H-pyrazol-1-yl]phenyl}-3-(4-methylthiazol-5-yl)urea], the inhibition at 1 µM was 92.3%.
With Cc1ncncc1NC(=O)Nc1ccc(-n2nc(C(F)(F)F)cc2C2CC2)cc1 [Example 77, 1-{4-[5-cyclopropyl-3-(trifluoromethyl)-1H-pyrazol-1-yl]phenyl}-3-(4-methylpyrimidin-5-yl)urea] the inhibition at 1 µM was 44%.
O=C(Nc1c(F)cccc1F)c1ccc(-n2nc(C(F)(F)F)cc2C2CC2)cc1 [Example 79, 4-[5-cyclopropyl-3-(trifluororomethyl)-1H-pyrazol-1-yl]-N-(2,6-difluorophenyl) benzamide] gave an inhibition at 1 µM of 100%.
Cc1ncsc1C(=O)Nc1ccc(-n2nc(C(F)(F)F)c(Cl)c2C2CC2)cc1 [Example 80, N-{4-[4-chloro-5-cyclopropyl-3-(trifluoromethyl)-1H-pyrazol-1-yl]phenyl}-4-methylthiazole-5-carboxamide] was tested, and the inhibition at 1 µM was 81.6%.
With O=C(Cc1ccccn1)Nc1ccc(-n2nc(C(F)(F)F)c(Cl)c2C2CC2)cc1 [Example 81, N-{4-[4-chloro-5-cyclopropyl-3-(trifluoromethyl)-1H-pyrazol-1-yl]phenyl}-2-(pyridin-2-yl)acetamide hydrochloride] the inhibition at 1 µM was 56.1%.
Cc1oncc1C(=O)Nc1ccc(-n2nc(C(F)(F)F)cc2C2CC2)c(F)c1 [Example 84, N-{4-[5-cyclopropyl-3-(trifluoromethyl)-1H-pyrazol-1-yl]-3-fluorophenyl}-5-methylisoxazole-4-carboxamide] was tested, and the inhibition at 1 µM was 100%.
Cc1noc(C)c1C(=O)Nc1ccc(-n2nc(C(F)(F)F)cc2C2CC2)c(F)c1 [Example 85, N-{4-[5-cyclopropyl-3-(trifluoromethyl)-1H-pyrazol-1-yl]-3-nuorophenyl}-3,5-dimethylisoxazole-4-carboxamide] was tested, and the inhibition at 1 µM was 76.6%.
With Cc1ccccc1C(=O)Nc1ccc(-n2nc(C(F)(F)F)cc2C2CC2)c(F)c1 [Example 86, N-{4-[5-cyclopropyl-3-(trifluoromethyl)-1H-pyrazol-1-yl]-3-fluorophenyl}-2-methylbenzamide] the inhibition at 1 µM was 86.6%.
O=C(Nc1ccc(-n2nc(C(F)(F)F)cc2C2CC2)c(F)c1)c1cccc(F)c1F [Example 87, N-{4-[5-cyclopropyl-3-(trifluoromethyl)-1H-pyrazol-1-yl]-3-fluorophenyl}-2,3-difluorobenzamide] showed an inhibition at 1 µM of 91.6%.
With O=C(Nc1ccc(-n2nc(C(F)(F)F)cc2C2CC2)c(F)c1)c1cccnc1 [Example 89, N-{4-[5-cyclopropyl-3-(trifluoromethyl)-1H-pyrazol-1-yl]-3-fluorophenyl}nicotinamide hydrochloride] the inhibition at 1 µM was 100%.
In the case of Cc1ncncc1C(=O)N(C)c1ccc(-n2nc(C(F)(F)F)cc2C2CC2)c(F)c1 [Example 94, N-{4-[5-cyclopropyl-3-(trifluoromethyl)-1H-pyrazol-1-yl]-3-fluorophenyl}-N,4-dimethylpyrimidine-5-carboxamide], the inhibition at 1 µM is reported as 45.4%.
Cc1nnsc1C(=O)Nc1ccc(-n2nc(C(F)(F)F)c(Cl)c2C2CC2)c(F)c1 [Example 95, N-{4-[4-chloro-5-cyclopropyl-3-(trifluoromethyl)-1H-pyrazol-1-yl]-3-fluorophenyl}-4-methyl-1,2,3-thiadiazole-5-carboxamide] gave an inhibition at 1 µM of 100%.
